Reference: PubChem BioAssay AID1963978 (Molecular Pharmacology Branch, DTP, NCI, 2024)

Test system: 616215-338-R-J1-PDC spheroids with HUVEC/MSC, viability
Assay: Anticancer human tumor 616215-338-R-J1-PDC patient-derived colon adenocarcinoma cell line growth inhibition [PI3K]
Settings: for IC50: curve of first compound; for viability, T/C: stronger effect = lower value
Summary of the method: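 Combination activity was assessed by viability in multicellular tumor spheroids carrying HUVEC and MSC components. Agents were tested with PI3K inhibitors from a Cmax-based top dose (or 10 microM) downward in half-log increments.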

[1] = second compound 0.00316 µM, first compound 0.0316 µM
[2] = second compound 0.00316 µM, first compound 0.1 µM
[3] = second compound 0.01 µM, first compound 0.0316 µM
[4] = second compound 0.01 µM, first compound 0.1 µM
[5] = second compound 0.0316 µM, first compound 0.0316 µM
[6] = second compound 0.0316 µM, first compound 0.1 µM
[7] = second compound 0.1 µM, first compound 0.0316 µM
[8] = second compound 0.1 µM, first compound 0.1 µM
[9] = second compound 0.316 µM, first compound 0.0316 µM
[10] = second compound 0.316 µM, first compound 0.1 µM
[11] = second compound 1 µM, first compound 0.0316 µM
[12] = second compound 1 µM, first compound 0.1 µM
[13] = second compound 0.00316 µM, first compound 0.316 µM
[14] = second compound 0.00316 µM, first compound 1 µM
[15] = second compound 0.00316 µM, first compound 3.16 µM
[16] = second compound 0.00316 µM, first compound 10 µM
[17] = second compound 0.01 µM, first compound 0.316 µM
[18] = second compound 0.01 µM, first compound 1 µM
[19] = second compound 0.01 µM, first compound 3.16 µM
[20] = second compound 0.01 µM, first compound 10 µM
[21] = second compound 0.0316 µM, first compound 0.316 µM
[22] = second compound 0.0316 µM, first compound 1 µM
[23] = second compound 0.0316 µM, first compound 3.16 µM
[24] = second compound 0.0316 µM, first compound 10 µM
[25] = second compound 0.1 µM, first compound 0.316 µM
[26] = second compound 0.1 µM, first compound 1 µM
[27] = second compound 0.1 µM, first compound 3.16 µM
[28] = second compound 0.1 µM, first compound 10 µM
[29] = second compound 0.316 µM, first compound 0.316 µM
[30] = second compound 0.316 µM, first compound 1 µM
[31] = second compound 0.316 µM, first compound 3.16 µM
[32] = second compound 0.316 µM, first compound 10 µM
[33] = second compound 1 µM, first compound 0.316 µM
[34] = second compound 1 µM, first compound 1 µM
[35] = second compound 1 µM, first compound 3.16 µM
[36] = second compound 1 µM, first compound 10 µM
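Also: spheroids exposed to agents for seven days before the viability read.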

`Cn1ncnc1[C@H]1c2n[nH]c(=O)c3cc(F)cc(c23)N[C@@H]1c1ccc(F)cc1` + CC(Nc1ccc2c(c1)OCCn1cc(N3C(=O)OCC3C(F)F)nc1-2)C(N)=O was tested, and the IC50 (second compound 0.00316 µM) was over 0.1 µM, the IC50 (second compound 0.01 µM) was over 0.1 µM and the IC50 (second compound 0.0316 µM) was over 0.1 µM. For the same compound, the IC50 (second compound 0.1 µM) was over 0.1 µM, the IC50 (second compound 0.316 µM) was over 0.1 µM and the IC50 (second compound 1 µM) was over 0.1 µM. The viability, T/C (second compound 0.00316 µM, first compound 0.000316 µM) was 100%, the viability, T/C (second compound 0.00316 µM, first compound 0.001 µM) was 90.8% and the viability, T/C (second compound 0.00316 µM, first compound 0.00316 µM) was 98.3%. It also gave a viability, T/C (second compound 0.00316 µM, first compound 0.01 µM) of 103%, a viability, T/C [1] of 88.8% and a viability, T/C [2] of 98.4%. For the same compound, the viability, T/C (second compound 0.01 µM, first compound 0.000316 µM) was 85.9%, the viability, T/C (second compound 0.01 µM, first compound 0.001 µM) was 90.6% and the viability, T/C (second compound 0.01 µM, first compound 0.00316 µM) was 91.8%. It also gave a viability, T/C (second compound 0.01 µM, first compound 0.01 µM) of 84%, a viability, T/C [3] of 101% and a viability, T/C [4] of 90.5%. The viability, T/C (second compound 0.0316 µM, first compound 0.000316 µM) was 102%, the viability, T/C (second compound 0.0316 µM, first compound 0.001 µM) was 92.7% and the viability, T/C (second compound 0.0316 µM, first compound 0.00316 µM) was 89.8%. The viability, T/C (second compound 0.0316 µM, first compound 0.01 µM) was 97.6%, the viability, T/C [5] was 98.5% and the viability, T/C [6] was 93.2%. For the same compound, the viability, T/C (second compound 0.1 µM, first compound 0.000316 µM) was 97.1%, the viability, T/C (second compound 0.1 µM, first compound 0.001 µM) was 92.4% and the viability, T/C (second compound 0.1 µM, first compound 0.00316 µM) was 104%. For the same compound, the viability, T/C (second compound 0.1 µM, first compound 0.01 µM) was 103%, the viability, T/C [7] was 94.8% and the viability, T/C [8] was 88.9%. The viability, T/C (second compound 0.316 µM, first compound 0.000316 µM) was 112%, the viability, T/C (second compound 0.316 µM, first compound 0.001 µM) was 90.6% and the viability, T/C (second compound 0.316 µM, first compound 0.00316 µM) was 93.5%. The viability, T/C (second compound 0.316 µM, first compound 0.01 µM) was 99.4%, the viability, T/C [9] was 90% and the viability, T/C [10] was 88.7%. For the same compound, the viability, T/C (second compound 1 µM, first compound 0.000316 µM) was 96.2%, the viability, T/C (second compound 1 µM, first compound 0.001 µM) was 99.3% and the viability, T/C (second compound 1 µM, first compound 0.00316 µM) was 116%. For the same compound, the viability, T/C (second compound 1 µM, first compound 0.01 µM) was 89.6%, the viability, T/C [11] was 87.7% and the viability, T/C [12] was 76.2%.

In the case of `CC1(C)CCC(CN2CCN(c3ccc(C(=O)NS(=O)(=O)c4ccc(NCC5CCOCC5)c([N+](=O)[O-])c4)c(Oc4cnc5[nH]ccc5c4)c3)CC2)=C(c2ccc(Cl)cc2)C1`, the viability, T/C (compound 0.1 µM) is reported as 99.5% [middle of 4 runs], the viability, T/C (compound 0.316 µM) is reported as 96.5% [middle of 4 runs] and the viability, T/C (compound 1 µM) is reported as 96.4% [middle of 4 runs]. For the same compound, the viability, T/C (compound 3.16 µM) was 77.8% [middle of 4 runs].

Work on `CC1(C)CCC(Nc2ncc(C(F)(F)F)c(-c3c[nH]c4c(P(C)(C)=O)c(C#N)ccc34)n2)CN1` (stereo unspecified) + CC(Nc1ccc2c(c1)OCCn1cc(N3C(=O)OCC3C(F)F)nc1-2)C(N)=O yielded an IC50 (second compound 0.00316 µM) of 3.62 µM, an IC50 (second compound 0.01 µM) of 3.73 µM and an IC50 (second compound 0.0316 µM) of 3.54 µM. The IC50 (second compound 0.1 µM) was 3.84 µM, the IC50 (second compound 0.316 µM) was 1.63 µM and the IC50 (second compound 1 µM) was 1.39 µM. The viability, T/C [1] was 50.4%, the viability, T/C [2] was 55.4% and the viability, T/C [13] was 56.4%. It also gave a viability, T/C [14] of 61.7%, a viability, T/C [15] of 59.1% and a viability, T/C [16] of 0.47%. It also gave a viability, T/C [3] of 53.6%, a viability, T/C [4] of 54.3% and a viability, T/C [17] of 58%. It also gave a viability, T/C [18] of 64.8%, a viability, T/C [19] of 61% and a viability, T/C [20] of 0.42%. For the same compound, the viability, T/C [5] was 58%, the viability, T/C [6] was 49.4% and the viability, T/C [21] was 71.4%. For the same compound, the viability, T/C [22] was 52.2%, the viability, T/C [23] was 55.4% and the viability, T/C [24] was 2.25%. The viability, T/C [7] was 66.7%, the viability, T/C [8] was 59.5% and the viability, T/C [25] was 53.2%. It also gave a viability, T/C [26] of 59.4%, a viability, T/C [27] of 60.4% and a viability, T/C [28] of 2.28%. The viability, T/C [9] was 49.8%, the viability, T/C [10] was 45.8% and the viability, T/C [29] was 59.5%. The viability, T/C [30] was 71.9%, the viability, T/C [31] was 41% and the viability, T/C [32] was 0.25%. The viability, T/C [11] was 49.6%, the viability, T/C [12] was 54.3% and the viability, T/C [33] was 64.7%. The viability, T/C [34] was 62.2%, the viability, T/C [35] was 30.8% and the viability, T/C [36] was 1.17%.

In the case of `Cn1cnc2c(F)c(Nc3ccc(Br)cc3Cl)c(C(=O)NOCCO)cc21`, the viability, T/C (compound 0.00949 µM) is reported as 96.1% [middle of 4 runs], the viability, T/C (compound 0.03 µM) is reported as 94.7% [middle of 4 runs] and the viability, T/C (compound 0.0949 µM) is reported as 92.1% [middle of 4 runs]. For the same compound, the viability, T/C (compound 0.3 µM) was 80.6% [middle of 4 runs], the viability, T/C (compound 0.949 µM) was 58.5% [middle of 4 runs] and the viability, T/C (compound 3 µM) was 45.3% [middle of 4 runs].

With `CC1(C)CCC(CN2CCN(c3ccc(C(=O)NS(=O)(=O)c4ccc(NCC5CCOCC5)c([N+](=O)[O-])c4)c(Oc4cnc5[nH]ccc5c4)c3)CC2)=C(c2ccc(Cl)cc2)C1` + COc1c(OCCCN2CCOCC2)ccc2c3n(c(=NC(=O)c4cnc(N)nc4)nc12)CCN3 the IC50 (second compound 0.00316 µM) was over 10 µM, the IC50 (second compound 0.01 µM) was over 10 µM and the IC50 (second compound 0.0316 µM) was over 10 µM. The IC50 (second compound 0.1 µM) was over 10 µM, the IC50 (second compound 0.316 µM) was under 0.0316 µM and the IC50 (second compound 1 µM) was under 0.0316 µM. It also gave a viability, T/C [1] of 94%, a viability, T/C [2] of 103% and a viability, T/C [13] of 109%. The viability, T/C [14] was 99.7%, the viability, T/C [15] was 88.7% and the viability, T/C [16] was 95.2%. For the same compound, the viability, T/C [3] was 84.7%, the viability, T/C [4] was 95.1% and the viability, T/C [17] was 98.2%. It also gave a viability, T/C [18] of 98.7%, a viability, T/C [19] of 84.2% and a viability, T/C [20] of 96.8%. It also gave a viability, T/C [5] of 96.8%, a viability, T/C [6] of 99.4% and a viability, T/C [21] of 100%. The viability, T/C [22] was 102%, the viability, T/C [23] was 93.1% and the viability, T/C [24] was 109%. The viability, T/C [7] was 96.1%, the viability, T/C [8] was 93.6% and the viability, T/C [25] was 107%. For the same compound, the viability, T/C [26] was 87.8%, the viability, T/C [27] was 83% and the viability, T/C [28] was 95.2%. It also gave a viability, T/C [9] of 47.4%, a viability, T/C [10] of 41.2% and a viability, T/C [29] of 45.5%. The viability, T/C [30] was 42.5%, the viability, T/C [31] was 27.6% and the viability, T/C [32] was 33.2%. For the same compound, the viability, T/C [11] was 24.3%, the viability, T/C [12] was 24.4% and the viability, T/C [33] was 25.5%. It also gave a viability, T/C [34] of 21%, a viability, T/C [35] of 13.2% and a viability, T/C [36] of 30%.
